Measurements taken from PubChem BioAssay AID330 (DTP/NCI, 2004).
Several values for one entry are separate records, joined by “and”; a condition that tells them apart may be missing. Equal values may be shown once. Inconclusive results and toxic doses are left out.

System: P388 leukemia ip, CD2F1 mice, survival T/C
Assay: NCI In Vivo Anticancer Drug Screen. Data for tumor model P388 Leukemia (intraperitoneal) in CD2F1 (CDF1) mice
Conditions: endpoint: median survival time, higher = longer survival
Experimental: The antitumor activity of compounds was measured in mice bearing transplantable tumors. Survival or tumor size were measured and the results are expressed as the measurement made in the treated group (T) divided by the measurement made in the vehicle treated control group (C). The tumor model used in this assay is P388 Leukemia (intraperitoneal) in CD2F1 (CDF1) mice

[1] = dose: 50.0 mg/kg/injection, schedule: Q01DX009 (ip), vehicle: saline with Tween-80
[2] = dose: 100.0 mg/kg/injection, schedule: Q01DX009 (ip), vehicle: saline with Tween-80
[3] = dose: 200.0 mg/kg/injection, schedule: Q01DX009 (ip), vehicle: saline with Tween-80

O=CC1(c2ccco2)SCCCS1
T/C [1]: 106 % of control
T/C [2]: 104 % of control
T/C [3]: 104 % of control

Cc1cccc2c(Nc3ccc(NS(C)(=O)=O)cc3)c3ccccc3nc12
T/C (dose: 0.53 mg/kg/injection, schedule: Q01DX009 (ip), vehicle: saline): 111 % of control
T/C (dose: 0.8 mg/kg/injection, schedule: Q01DX009 (ip), vehicle: saline): 124 % of control
T/C (dose: 7.5 mg/kg/injection, schedule: Q01DX009 (ip), vehicle: saline with Tween-80): 166 % of control
T/C (dose: 33.0 mg/kg/injection, schedule: Q04DX003 (ip), vehicle: saline with Tween-80): 168 % of control
T/C (dose: 50.0 mg/kg/injection, schedule: Q04DX003 (ip), vehicle: saline with Tween-80): 163 % of control
T/C (dose: 75.0 mg/kg/injection, schedule: Q04DX003 (ip), vehicle: saline with Tween-80): 163 % of control and 181 % of control
T/C (dose: 150.0 mg/kg/injection, schedule: Q04DX003 (ip), vehicle: saline with Tween-80): 181 % of control
T/C (dose: 300.0 mg/kg/injection, schedule: Q04DX003 (ip), vehicle: saline with Tween-80): 122 % of control

CC(=O)NC1=CC(=Nc2ccc(N(C)C)cc2)C=CC1=O
T/C (dose: 3.12 mg/kg/injection, schedule: Q01DX005 (ip), vehicle: saline): 114 % of control
T/C (dose: 6.25 mg/kg/injection, schedule: Q01DX005 (ip), vehicle: saline): 112 % of control
T/C (dose: 12.5 mg/kg/injection, schedule: Q01DX005 (ip), vehicle: saline): 102 % of control

O=C(Nc1ccccc1)Oc1ccc(/C=N/S(=O)(=O)c2cccc([N+](=O)[O-])c2)cc1
T/C [1]: 96 % of control
T/C [2]: 98 % of control
T/C [3]: 118 % of control

CC1=CC2(C)OC(=O)N(c3ccccc3)C2N=C1 (configuration not stated)
T/C (dose: 50.0 mg/kg/injection, schedule: Q01DX009 (ip), vehicle: Klucel (hydroxypropylcellulose) (HPC)): 111 % of control
T/C (dose: 100.0 mg/kg/injection, schedule: Q01DX009 (ip), vehicle: Klucel (hydroxypropylcellulose) (HPC)): 109 % of control

COc1cc(OC)c(NC(=O)Oc2cc(C)c(I)cc2C)cc1Cl
T/C (dose: 6.25 mg/kg/injection, schedule: Q01DX009 (ip), vehicle: saline): 118 % of control
T/C (dose: 12.5 mg/kg/injection, schedule: Q01DX009 (ip), vehicle: saline): 96 % of control
T/C (dose: 25.0 mg/kg/injection, schedule: Q01DX009 (ip), vehicle: saline): 93 % of control
T/C (dose: 100.0 mg/kg/injection, schedule: Q01DX009 (ip), vehicle: saline + alcohol): 98 % of control
T/C (dose: 200.0 mg/kg/injection, schedule: Q01DX009 (ip), vehicle: saline + alcohol): 95 % of control

CC1(CN2CCCC2)CCC(NC(=O)C(c2ccccc2)c2ccccc2)C(C)(C)O1 (configuration not stated)
T/C (dose: 25.0 mg/kg/injection, schedule: Q01DX001 (ip), vehicle: saline with Tween-80): 107 % of control
T/C (dose: 50.0 mg/kg/injection, schedule: Q01DX001 (ip), vehicle: saline with Tween-80): 104 % of control

CC(=O)[O][Hg][CH2]C1Cc2ccccc2O1 (configuration not stated)
T/C (dose: 2.5 mg/kg/injection, schedule: Q01DX009 (ip), vehicle: saline): 98 % of control
T/C (dose: 5.0 mg/kg/injection, schedule: Q01DX009 (ip), vehicle: saline): 99 % of control
T/C (dose: 10.0 mg/kg/injection, schedule: Q01DX009 (ip), vehicle: saline): 99 % of control
T/C (dose: 20.0 mg/kg/injection, schedule: Q01DX009 (ip), vehicle: saline): 100 % of control

CN1C(=O)N(C)P123OP1(N(C)C(=O)N1C)(N(C)C(=O)N2C)N(C)C(=O)N3C
T/C (dose: 60.0 mg/kg/injection, schedule: Q01DX005 (ip), vehicle: saline): 103 % of control
T/C (dose: 120.0 mg/kg/injection, schedule: Q01DX005 (ip), vehicle: saline): 97 % of control
T/C (dose: 240.0 mg/kg/injection, schedule: Q01DX005 (ip), vehicle: saline): 89 % of control

CCN(CC)CCNC(=O)c1nn(-c2ccccc2)c2c1CCCc1ccccc1-2
T/C (dose: 25.0 mg/kg/injection, schedule: Q04DX003 (ip), vehicle: Klucel (hydroxypropylcellulose) (HPC)): 101 % of control
T/C (dose: 50.0 mg/kg/injection, schedule: Q04DX003 (ip), vehicle: Klucel (hydroxypropylcellulose) (HPC)): 101 % of control
T/C (dose: 100.0 mg/kg/injection, schedule: Q04DX003 (ip), vehicle: Klucel (hydroxypropylcellulose) (HPC)): 99 % of control and 92 % of control

O=C1SC/C(=N\N=c2/scc(-c3ccc(Br)cc3)n2-c2ccccc2)N1Cc1ccccc1
T/C (dose: 100.0 mg/kg/injection, schedule: Q04DX002 (ip), vehicle: Klucel (hydroxypropylcellulose) (HPC)): 92 % of control
T/C (dose: 200.0 mg/kg/injection, schedule: Q04DX002 (ip), vehicle: Klucel (hydroxypropylcellulose) (HPC)): 91 % of control
T/C (dose: 400.0 mg/kg/injection, schedule: Q04DX002 (ip), vehicle: Klucel (hydroxypropylcellulose) (HPC)): 89 % of control

COC(=O)C(CC=C(C)C)(CC=C(C)C)C(C)=O
T/C (dose: 100.0 mg/kg/injection, schedule: Q04DX002 (ip), vehicle: saline): 104 % of control
T/C (dose: 200.0 mg/kg/injection, schedule: Q04DX002 (ip), vehicle: saline): 100 % of control
T/C (dose: 400.0 mg/kg/injection, schedule: Q04DX002 (ip), vehicle: saline): 113 % of control
